Assays:
[1] = test system: HCV replicon cells Huh 9B; test: HCV replicon assay (luciferase readout); assay type: cell-based; details: concentration reducing replicon level (luciferase activity) by 50% vs untreated cell control, 72 h incubation
Procedure, shortened: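 Compounds, made up at twice final strength (final DMSO 1%), were added to subgenomic replicon cells one day after plating. Incubation then ran 72 h at 37 °C, 5% CO2, without G418. Replication was quantified as firefly luciferase luminescence in lysed cells, with cytotoxicity assessed on a duplicate clear plate.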

[2] = test system: HCV replicon cells Huh 9B; assay type: cell-based; details: concentration reducing total cell area by 50% relative to DMSO controls; methylene blue, absorbance 620 nm; 72 h incubation

Row | SMILES | IC50 ([1]; Hepatitis C virus, 72 h) [µM] | TD50 [2] | IC50 [1] [µM]
1 | Cc1ccc(NC(=O)c2ccc(N3CCOCC3)cc2)cc1-c1ccc(C(=O)NCc2cccc(Br)c2)cc1 [Example 88, 2′-Methyl-5′-(4-morpholin-4-yl-benzoylamino)-biphenyl-4-carboxylic acid 3-bromo-benzylamide] | 1 to 5 | ** (** > 50 μM) | 
2 | Cc1cccc(CNC(=O)c2ccc(-c3cc(NC(=O)c4ccc(N5CCOCC5)cc4)ccc3C)cc2)c1 [Example 89, 2′-Methyl-5′-(4-morpholin-4-yl-benzoylamino)-biphenyl-4-carboxylic acid 3-methyl-benzylamide] | 1 to 5 | ** (** > 50 μM) | 
3 | Cc1ccc(NC(=O)c2ccc(N3CCOCC3)cc2)cc1-c1ccc(C(=O)Nc2ccc(Br)c(Cl)c2)cc1 [Example 90, 2′-Methyl-5′-(4-morpholin-4-yl-benzoylamino)-biphenyl-4-carboxylic acid (4-bromo-3-chloro-phenyl)-amide] | > 5 | ** (** > 50 μM) | 
4 | COc1cccc(NC(=O)c2ccc(-c3cc(NC(=O)c4ccc(N5CCOCC5)cc4)ccc3C)cc2)c1 [Example 91, 2′-Methyl-5′-(4-morpholin-4-yl-benzoylamino)-biphenyl-4-carboxylic acid (3-methoxy-phenyl)-amide] | 1 to 5 | ** (** > 50 μM) | 
5 | Cc1ccc(NC(=O)c2ccc(N3CCOCC3)cc2)cc1-c1ccc(C(=O)NCc2cccc(OC(F)(F)F)c2)cc1 [Example 92, 2′-Methyl-5′-(4-morpholin-4-yl-benzoylamino)-biphenyl-4-carboxylic acid 3-trifluoromethoxy-benzylamide] | 1 to 5 | ** (** > 50 μM) | 
6 | Cc1ccc(NC(=O)c2ccc(N3CCOCC3)cc2)cc1-c1ccc(C(=O)Nc2ccc3cc[nH]c3c2)cc1 [Example 93, 2′-Methyl-5′-(4-morpholin-4-yl-benzoylamino)-biphenyl-4-carboxylic acid (1H-indol-6-yl)-amide] | < 1 | ** (** > 50 μM) | 
7 | Cc1ccc(NC(=O)c2ccc(N3CCOCC3)cc2)cc1-c1ccc(C(=O)NCc2cccc(Cl)c2)cc1 [Example 94, 2′-Methyl-5′-(4-morpholin-4-yl-benzoylamino)-biphenyl-4-carboxylic acid 3-chloro-benzylamide] | 1 to 5 | ** (** > 50 μM) | 
8 | Cc1ccc(CNC(CO)Cc2cnc[nH]2)cc1-c1ccc(C(=O)Nc2ccc(N3CCOCC3)cc2)cc1 (stereo not shown) [Example 95, 5′-{[1-Hydroxymethyl-2-(3H-imidazol-4-yl)-ethylamino]-methyl}-2′-methyl-biphenyl-4-carboxylic acid (4-morpholin-4-yl-phenyl)-amide] | 1 to 5 | * (* < 50 μM) | 
9 | Cc1ccc(C(=O)Nc2ccc(N3CCOCC3)cc2)cc1-c1ccc(CNCc2cccc(Cl)c2)cc1 [Example 96, 4′-[(3-Chloro-benzylamino)-methyl]-6-methyl-biphenyl-3-carboxylic acid (4-morpholin-4-yl-phenyl)-amide] | 1 to 5 | ** (** > 50 μM) | 
10 | Cc1ccc(C(=O)Nc2ccc(N3CCOCC3)cc2)cc1-c1ccc(CNc2ccc3cn[nH]c3c2)cc1 [Example 97, 4′-[(1H-Indazol-6-ylamino)-methyl]-6-methyl-biphenyl-3-carboxylic acid (4-morpholin-4-yl-phenyl)-amide] | 1 to 5 | ** (** > 50 μM) | 
11 | Cc1ccc(C(=O)Nc2ccc(N3CCOCC3)cc2)cc1-c1ccc(CNC2CC2)cc1 [Example 98, 4′-Cyclopropylaminomethyl-6-methyl-biphenyl-3-carboxylic acid (4-morpholin-4-yl-phenyl)-amide] | 1 to 5 | * (* < 50 μM) | 
12 | Cc1ccc(C(=O)Nc2ccc(N3CCOCC3)cc2)cc1-c1ccc(CN[C@@H](CO)C(=O)O)cc1 [Example 99, (S)-3-Hydroxy-2-{[2′-methyl-5′-(4-morpholin-4-yl-phenylcarbamoyl)-biphenyl-4-ylmethyl]-amino}-propionic acid] | 1 to 5 | ** (** > 50 μM) | 
13 | Cc1ccc(C(=O)Nc2ccc(N3CCOCC3)cc2)cc1-c1ccc(CNCCc2cnc[nH]2)cc1 [Example 100, 4′-{[2-(3H-Imidazol-4-yl)-ethylamino]-methyl}-6-methyl-biphenyl-3-carboxylic acid (4-morpholin-4-yl-phenyl)-amide] | 1 to 5 | ** (** > 50 μM) | 
14 | Cc1ccc(C(=O)Nc2ccc(N3CCOCC3)cc2)cc1-c1ccc(CNC(CO)Cc2cnc[nH]2)cc1 (stereo not shown) [Example 101, 4′-{[1-Hydroxymethyl-2-(3H-imidazol-4-yl)-ethylamino]-methyl}-6-methyl-biphenyl-3-carboxylic acid (4-morpholin-4-yl-phenyl)-amide] | < 1 | * (* < 50 μM) | 
15 | Cc1ccc(C(=O)Nc2ccc(N3CCOCC3)cc2)cc1-c1ccc(CNCCN(C)C)cc1 [Example 102, 4′-[(2-Dimethylamino-ethylamino)-methyl]-6-methyl-biphenyl-3-carboxylic acid (4-morpholin-4-yl-phenyl)-amide] | 1 to 5 | * (* < 50 μM) | 
16 | Cc1ccc(C(=O)Nc2ccc(N3CCOCC3)cc2)cc1-c1ccc(NC(=O)c2cccc(Br)c2)cc1 [Example 103, 4′-(3-Bromo-benzoylamino)-6-methyl-biphenyl-3-carboxylic acid (4-morpholin-4-yl-phenyl)-amide] | 1 to 5 | ** (** > 50 μM) | 
17 | Cc1ccc(C(=O)Nc2ccc(N3CCOCC3)cc2)cc1-c1ccc(NC(=O)c2nc3ccccc3nc2O)cc1 [Example 104, 3-Hydroxy-quinoxaline-2-carboxylic acid [2′-methyl-5′-(4-morpholin-4-yl-phenylcarbamoyl)-biphenyl-4-yl]-amide] | 1 to 5 | ** (** > 50 μM) | 
18 | Cc1ccc(C(=O)Nc2ccc(N3CCOCC3)cc2)cc1-c1ccc(NC(=O)CNC(=O)c2ccccc2)cc1 [Example 105, 4′-(2-Benzoylamino-acetylamino)-6-methyl-biphenyl-3-carboxylic acid (4-morpholin-4-yl-phenyl)-amide] | 1 to 5 | ** (** > 50 μM) | 
19 | Cc1ccc(C(=O)Nc2ccc(N3CCOCC3)cc2)cc1-c1ccc(NC(=O)Cc2cccc(Cl)c2)cc1 [Example 106, 4′-[2-(3-Chloro-phenyl)-acetylamino]-6-methyl-biphenyl-3-carboxylic acid (4-morpholin-4-yl-phenyl)-amide] | 1 to 5 | ** (** > 50 μM) | 
20 | COc1cccc(C(=O)Nc2ccc(-c3cc(C(=O)Nc4ccc(N5CCOCC5)cc4)ccc3C)cc2)c1 [Example 107, 4′-(3-Methoxy-benzoylamino)-6-methyl-biphenyl-3-carboxylic acid (4-morpholin-4-yl-phenyl)-amide] | < 1 | ** (** > 50 μM) | 
21 | Cc1ccc(NC(=O)c2cn[nH]c2)cc1-c1ccc(C(=O)Nc2ccc(N3CCOCC3)cc2)cc1 [Example 108, 1H-Pyrazole-4-carboxylic acid [6-methyl-4′-(4-morpholin-4-yl-phenylcarbamoyl)-biphenyl-3-yl]-amide] | 1 to 5 | ** (** > 50 μM) | 
22 | Cc1ccc(C(=O)Nc2ccc(N3CCOCC3)cc2)cc1-c1ccc(NC(=O)c2ccccc2O)cc1 [Example 109, 4′-(2-Hydroxy-benzoylamino)-6-methyl-biphenyl-3-carboxylic acid (4-morpholin-4-yl-phenyl)-amide] | 1 to 5 | * (* < 50 μM) | 
23 | COc1ccc(C(=O)Nc2ccc(-c3cc(C(=O)Nc4ccc(N5CCOCC5)cc4)ccc3C)cc2)cc1OC [Example 110, 4′-(3,4-Dimethoxy-benzoylamino)-6-methyl-biphenyl-3-carboxylic acid (4-morpholin-4-yl-phenyl)-amide] | 1 to 5 | ** (** > 50 μM) | 
24 | Cc1ccc(C(=O)Nc2ccc(N3CCOCC3)cc2)cc1-c1ccc(NC(=O)c2cnccc2C(F)(F)F)cc1 [Example 111, N-[2′-Methyl-5′-(4-morpholin-4-yl-phenylcarbamoyl) -biphenyl-4-yl]-4-trifluoromethyl-nicotinamide] | > 5 | ** (** > 50 μM) | 
25 | COc1cccc(C(=O)Nc2ccc(-c3cc(C(=O)Nc4ccc(N5CCOCC5)cc4)ccc3C)cc2)c1 [Example 112, 4′-(3-Methoxy-benzoylamino)-6-methyl-biphenyl-3-carboxylic acid (4-morpholin-4-yl-phenyl)-amide] |  | * (* < 50 μM) | 1 to 5
26 | Cc1cc(NC(=O)C2CC2)ccc1-c1cccc(C(=O)Nc2ccc(N3CCOCC3)cc2)c1 [Example 113, 4′-(Cyclopropanecarbonyl-amino)-2′-methyl-biphenyl-3-carboxylic acid (4-morpholin-4-yl-phenyl)-amide] | > 5 | * (* < 50 μM) | 
27 | Cc1cc(NC(=O)c2ccco2)ccc1-c1cccc(C(=O)Nc2ccc(N3CCOCC3)cc2)c1 [Example 114, Furan-2-carboxylic acid [2-methyl-3′-(4-morpholin-4-yl-phenylcarbamoyl)-biphenyl-4-yl]-amide] | > 5 | * (* < 50 μM) | 
28 | COc1ccccc1C(=O)Nc1ccc(-c2cccc(C(=O)Nc3ccc(N4CCOCC4)cc3)c2)c(C)c1 [Example 115, 4′-(2-Methoxy-benzoylamino)-2′-methyl-biphenyl-3-carboxylic acid (4-morpholin-4-yl-phenyl)-amide] | 1 to 5 | * (* < 50 μM) | 
29 | COc1cccc(C(=O)Nc2ccc(-c3cccc(C(=O)Nc4ccc(N5CCOCC5)cc4)c3)c(C)c2)c1 [Example 116, 4′-(3-Methoxy-benzoylamino)-2′-methyl-biphenyl-3-carboxylic acid (4-morpholin-4-yl-phenyl)-amide] | 1 to 5 | * (* < 50 μM) | 

Reference: US8008303B2, “Biphenyl derivatives and their use in treating hepatitis C” (AstraZeneca AB, priority 2005, dated 2011)
